# Data from the supplement of paper PMC6965134.
# ± gives the standard deviation of the averaged measurements.
# Test: TIMS collisional cross section (CCS, N2) of the lipid ion; higher = larger ion cross section
# Details: ionization mode: negative, one isomer drawn
# Description: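 Lipid extracts of human plasma (NIST SRM 1950), mouse liver or HeLa cells were separated by nanoflow C18 LC (30 min gradient) and analysed by TIMS-PASEF on a timsTOF Pro. Ion mobility was calibrated with the Agilent tuning mix (negative mode ions) and converted to collisional cross sections (Mason–Schamp, N2).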
# 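Also: lipids from MTBE extraction, five replicate injections per sample, 100 ms TIMS ramp spanning 0.6–1.95 Vs/cm², lipid identity assigned from PASEF MS/MS spectra.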
structure (smiles),measurement,setting,value
CC/C=C\C/C=C\C/C=C\C/C=C\C/C=C\C/C=C\CCC(=O)O[C@H](COC(=O)CCCCCCCCC/C=C\C/C=C\CCCCC)COP(=O)(O)OC[C@H](N)C(=O)O [PS 20:2@_22:6],TIMS collisional cross section,"sample type: Mouse Liver, ion (formula + adduct): [C48H78NO10P-H] 1-",296.6 Å²
CCCCCCCCC/C=C\CCCCCCCC(=O)O[C@H](COCCCCCCCCCCCCCCCCCCCC)COP(=O)(O)OCCN [PE O- 20:0@_19:1],TIMS collisional cross section,"sample type: Human plasma, ion (formula + adduct): [C44H88NO7P+AcO] 1-",303.7 Å²
CCCCC/C=C\C/C=C\C/C=C\C/C=C\CCCC(=O)OC[C@H](COP(=O)(O)OCCN)OC(=O)CCCCCCC/C=C\C/C=C\CCCCC [PE 20:4_18:2@],TIMS collisional cross section,"sample type: Human plasma, ion (formula + adduct): [C43H74NO8P-H] 1-",275.6 ± 3.2 Å²
CCCCC/C=C\C/C=C\C/C=C\C/C=C\CCCC(=O)OC[C@H](COP(=O)(O)OC[C@H](N)C(=O)O)OC(=O)CCC/C=C\C/C=C\C/C=C\C/C=C\CCCCC [PS 20:4_20:4],TIMS collisional cross section,"sample type: Mouse Liver, ion (formula + adduct): [C46H74NO10P-H] 1-",287.4 Å²
CCCCCCCCCCCCCCCC(=O)O[C@H](COC(=O)CCCCCCCCCCCCCC)COP(=O)([O-])OCC[N+](C)(C)C [PC 15:0_16:0],TIMS collisional cross section,"sample type: Human plasma, ion (formula + adduct): [C39H78NO8P-H] 1-",269.8 Å²
CCCCCC/C=C\CCCCCCCC(=O)O[C@H](COC(=O)CCCCCCCCCCC)COP(=O)([O-])OCC[N+](C)(C)C [PC 12:0@_16:1],TIMS collisional cross section,"sample type: Human plasma, ion (formula + adduct): [C36H70NO8P+HCOO] 1-",275.3 Å²
CCCCC/C=C\C/C=C\C/C=C\C/C=C\CCCC(=O)O[C@H](COC(=O)CCCCCCCCCCCCCC)COP(=O)([O-])OCC[N+](C)(C)C [PC 15:0_20:4],TIMS collisional cross section,"sample type: Human plasma, ion (formula + adduct): [C43H78NO8P+HCOO] 1-",291 Å²
CCCCCCCCCCCCCCCCCC(=O)OC[C@H](COP(=O)(O)O)OC(=O)CCCCCCCCCCCCCCC [PA 18:0@_16:0],TIMS collisional cross section,"sample type: Mouse Liver, ion (formula + adduct): [C37H73O8P+Cl] 1-",267.2 Å²
CCCCCCCC/C=C\CCCCCCCCCC(=O)O[C@H](COC(=O)CCCCCCCCCCCCCCCCC)COP(=O)(O)OCCN [PE 18:0_20:1],TIMS collisional cross section,"sample type: Mouse Liver, ion (formula + adduct): [C43H84NO8P-H] 1-",282 Å²
CCCCCC/C=C\CCCCCCCC(=O)O[C@H](COC(=O)CCCCCCCCCCCCCC)COP(=O)([O-])OCC[N+](C)(C)C [PC 15:0@_16:1],TIMS collisional cross section,"sample type: Mouse Liver, ion (formula + adduct): [C39H76NO8P+AcO] 1-",285.4 Å²
CCCCC/C=C\C/C=C\C/C=C\C/C=C\CCCC(=O)OC[C@H](COP(=O)(O)OC[C@@H](O)CO)OC(=O)CCCCCCC/C=C\CCCCCCCC [PG 20:4_18:1@],TIMS collisional cross section,"sample type: Mouse Liver, ion (formula + adduct): [C44H77O10P-H] 1-",285.3 Å²
CCCCC/C=C\C[C@H](O)/C=C/C=C\C/C=C\CCCC(=O)O[C@H](CO/C=C\CCCCCCCCCCCCCC)COP(=O)(O)OCCN [Oxidized PE 16:0@_20:4],TIMS collisional cross section,"sample type: Human plasma, ion (formula + adduct): [C41H74NO8P+OAcO] 1-",291.6 Å²
same,TIMS collisional cross section,"sample type: Human plasma, ion (formula + adduct): [C41H74NO8P-H] 1-",274.77 ± 1.5 Å²
CC/C=C\C/C=C\C/C=C\C/C=C\C/C=C\C/C=C\CCC(=O)O[C@H](COC(=O)CCCCCCCCC/C=C\C/C=C\CCCCC)COP(=O)(O)OCCN [PE 20:2_22:6],TIMS collisional cross section,"sample type: Mouse Liver, ion (formula + adduct): [C47H78NO8P-H] 1-",283.4 Å²
C=CC(=O)O[C@H](COC(=O)CCCCCCCCCCCCCCCCC)COP(=O)([O-])OCC[N+](C)(C)C [PC 18:0_3:1@],TIMS collisional cross section,"sample type: Mouse Liver, ion (formula + adduct): [C29H56NO8P+AcO] 1-",260.8 Å²
same,TIMS collisional cross section,"sample type: Mouse Liver, ion (formula + adduct): [C29H56NO8P+HCOO] 1-",243.4 Å²
CCCCC/C=C\C/C=C\C/C=C\C/C=C\CCCCCC(=O)O[C@H](COC(=O)CCCCCCC/C=C\C/C=C\CCCCC)COP(=O)([O-])OCC[N+](C)(C)C [PC 18:2@_22:4],TIMS collisional cross section,"sample type: Mouse Liver, ion (formula + adduct): [C48H84NO8P+HCOO] 1-",301.7 Å²
CCCCCCCC/C=C\CCCCCCCCCC(=O)O[C@H](COC(=O)CCCCCCCCCCCCCCC)COP(=O)(O)OCCN [PE 16:0_20:1],TIMS collisional cross section,"sample type: Mouse Liver, ion (formula + adduct): [C41H80NO8P-H] 1-",275.2 Å²
CCCCC/C=C\C/C=C\C/C=C\CCCCCCC(=O)OC[C@@H](O)COP(=O)([O-])OCC[N+](C)(C)C [LPC 20:3_0:0],TIMS collisional cross section,"sample type: Human plasma, ion (formula + adduct): [C28H52NO7P+HCOO] 1-",245.03 ± 0.87 Å²
same,TIMS collisional cross section,"sample type: Human plasma, ion (formula + adduct): [C28H52NO7P-CH3] 1-",225.9 Å²
CCCCCC/C=C/CCCCCCCC(=O)OC[C@@H](O)COP(=O)([O-])OCC[N+](C)(C)C [LPC 16:1_0:0],TIMS collisional cross section,"sample type: Human plasma, ion (formula + adduct): [C24H48NO7P+HCOO] 1-",236.14 ± 0.68 Å²
same,TIMS collisional cross section,"sample type: Human plasma, ion (formula + adduct): [C24H48NO7P-CH3] 1-",237.8 Å²
same,TIMS collisional cross section,"sample type: Mouse Liver, ion (formula + adduct): [C24H48NO7P+HCOO] 1-",235 ± 0.42 Å²
CCCCC/C=C\C/C=C\C/C=C\C/C=C\CCCC(=O)O[C@H](COC(=O)CCCCCCC/C=C\C/C=C\CCCCC)COP(=O)([O-])OCC[N+](C)(C)C [PC 18:2_20:4],TIMS collisional cross section,"sample type: Human plasma, ion (formula + adduct): [C46H80NO8P+HCOO] 1-",296.8 ± 0.92 Å²
same,TIMS collisional cross section,"sample type: Mouse Liver, ion (formula + adduct): [C46H80NO8P+HCOO] 1-",295.7 ± 0.42 Å²
CCCCC/C=C\C/C=C\CCCCCCCC(=O)O[C@H](CO/C=C\CCCCCCCCCCCCCCCC)COP(=O)(O)OCCN [PE P- 18:0_18:2],TIMS collisional cross section,"sample type: Human plasma, ion (formula + adduct): [C41H78NO7P-H] 1-",272.4 Å²
CCCCC/C=C\C/C=C\C/C=C\CCCCCCC(=O)OC[C@H](COP(=O)(O)OC[C@H](N)C(=O)O)OC(=O)CCCCCCCCCCCCCCCCC [PS 20:3_18:0],TIMS collisional cross section,"sample type: Mouse Liver, ion (formula + adduct): [C44H80NO10P-H] 1-",286.4 Å²
CCCCC/C=C\C/C=C\C/C=C\C/C=C\CCCC(=O)O[C@H](COC(=O)CCCCCCC/C=C\CCCCC)COP(=O)([O-])OCC[N+](C)(C)C [PC 15:1@_20:4],TIMS collisional cross section,"sample type: Human plasma, ion (formula + adduct): [C43H76NO8P-H] 1-",275 Å²
same,TIMS collisional cross section,"sample type: Mouse Liver, ion (formula + adduct): [C43H76NO8P-H] 1-",275.6 Å²
CCCCC/C=C\C/C=C\CCCCCCCC(=O)O[C@H](COC(=O)CCCCCCCCCCCC)COP(=O)([O-])OCC[N+](C)(C)C [PC 13:0@_18:2],TIMS collisional cross section,"sample type: Mouse Liver, ion (formula + adduct): [C39H74NO8P-H] 1-",266.3 Å²
CC/C=C\C/C=C\C/C=C\C/C=C\C/C=C\C/C=C\CCC(=O)OC[C@H](COP(=O)(O)OCCN)OC(=O)CCCCCCC/C=C\CCCCCC [PE 22:6_16:1],TIMS collisional cross section,"sample type: Mouse Liver, ion (formula + adduct): [C43H72NO8P-H] 1-",272.7 Å²
CCCCC/C=C\C/C=C\C/C=C\C/C=C\CCCC(=O)O[C@H](COCCCCCCCCCCCCCCCCCC)COP(=O)([O-])OCC[N+](C)(C)C [PC O- 18:0@_20:4],TIMS collisional cross section,"sample type: Human plasma, ion (formula + adduct): [C46H86NO7P+HCOO] 1-",299 Å²
CCCCCCCC/C=C\CCCCCCCC(=O)OC[C@H](COP(=O)(O)OC[C@H](N)C(=O)O)OC(=O)CCCCCCCCCCCCCCCCC [PS 18:1_18:0],TIMS collisional cross section,"sample type: Mouse Liver, ion (formula + adduct): [C42H80NO10P-H] 1-",284.2 Å²
CC/C=C\C/C=C\C/C=C\C/C=C\C/C=C\C/C=C\CCC(=O)OC(COC(=O)CCCCCCCCCCCCCCCCC)COP(=O)(O)OCCN (configuration not stated) [PE 18:0_22:6],TIMS collisional cross section,"sample type: Human plasma, ion (formula + adduct): [C45H78NO8P-H] 1-",281.8 Å²
CC/C=C\C/C=C\CC(O)/C=C/C=C\C/C=C\C/C=C\CCC(=O)O[C@H](COC(=O)CCCCCCCCCCCCCCC)COP(=O)(O)OCCN (some centres not stated) [Oxidized PE 16:0@_22:6],TIMS collisional cross section,"sample type: Mouse Liver, ion (formula + adduct): [C43H74NO9P-H] 1-",279 Å²
CCCCC/C=C\C/C=C\C/C=C\C/C=C\C/C=C\CCC(=O)O[C@H](COC(=O)CCCCCCC/C=C\C/C=C\CCCCC)COP(=O)([O-])OCC[N+](C)(C)C [PC 18:2_22:5],TIMS collisional cross section,"sample type: Mouse Liver, ion (formula + adduct): [C48H82NO8P+HCOO] 1-",299.9 Å²
CC/C=C\C/C=C\C/C=C\C/C=C\C/C=C\C/C=C\CCC(=O)O[C@H](COC(=O)CCCCCCCCC/C=C\CCCCCCCC)COP(=O)([O-])OCC[N+](C)(C)C [PC 20:1_22:6@],TIMS collisional cross section,"sample type: Mouse Liver, ion (formula + adduct): [C50H86NO8P+HCOO] 1-",306.7 Å²
